Laboratory results published in ChEMBL document CHEMBL5512614, “Annual review of PROTAC degraders as anticancer agents in 2022” (Eur J Med Chem, 2024).
Values belong to the compound of their own block, whether it stands above or below them.

What was measured:
[1] = target: Protein cereblon/Focal adhesion kinase 1 (Homo sapiens) (UniProt Q05397+Q96SW2); experiment: PROTAC activity at CRBN/FAK in human A549 cells assessed as protein degradation at 10 nM incubated for 12 hrs by Western blot analysis relative to control; format: cell-based
[2] = Stability in human plasma assessed as half life at 2 uM incubated for 120 mins by LC-MS/MS analysis; format: ADME, cell-free
Focal adhesion kinase 1 = Focal adhesion kinase 1 (Homo sapiens, UniProt Q05397); experiment: Inhibition of FAK (unknown origin) incubated for 50 mins in presence of substrate/ATP by HTRF assay
[3] = target: von Hippel-Lindau disease tumor suppressor/GTPase KRas (Homo sapiens, UniProt P01116+P40337, G12C); experiment: PROTAC activity at VHL/KRAS G12C mutant in human NCI-H2030 cells assessed as protein degradation incubated for 24 hrs by Western blot analysis; format: cell-based
[4] = target: RAC-gamma serine/threonine-protein kinase (Homo sapiens, UniProt Q9Y243); experiment: Inhibition of AKT3 (unknown origin)
[5] = target: RAC-beta serine/threonine-protein kinase (Homo sapiens, UniProt P31751); experiment: Inhibition of AKT2 (unknown origin)
SW-620 = experiment: Inhibition of cell growth in human SW620 cells; format: functional
[6] = target: von Hippel-Lindau disease tumor suppressor/AKT (Homo sapiens, UniProt P31751+Q9Y243+P31749+P40337); experiment: PROTAC activity at VHL/AKT in human SW620 cells assessed as protein degradation; format: cell-based
[7] = target: RAC-alpha serine/threonine-protein kinase (Homo sapiens, UniProt P31749); experiment: Inhibition of AKT1 (unknown origin)
RAC-alpha serine/threonine-protein kinase, sequence (P31749 whole entry): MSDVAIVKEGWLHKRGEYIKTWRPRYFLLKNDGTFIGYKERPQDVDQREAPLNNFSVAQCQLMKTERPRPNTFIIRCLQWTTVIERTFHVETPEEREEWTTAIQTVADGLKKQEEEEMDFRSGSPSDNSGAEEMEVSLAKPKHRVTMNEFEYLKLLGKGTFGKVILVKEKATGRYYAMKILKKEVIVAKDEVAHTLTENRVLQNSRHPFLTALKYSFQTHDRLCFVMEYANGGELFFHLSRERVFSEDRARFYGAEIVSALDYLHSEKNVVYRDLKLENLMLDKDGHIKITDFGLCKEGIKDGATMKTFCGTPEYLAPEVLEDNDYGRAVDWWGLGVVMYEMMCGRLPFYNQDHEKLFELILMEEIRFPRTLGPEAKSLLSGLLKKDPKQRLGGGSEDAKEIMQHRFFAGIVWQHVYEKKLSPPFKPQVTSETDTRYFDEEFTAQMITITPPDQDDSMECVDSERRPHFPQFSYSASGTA

[8] = target: Cyclin-dependent kinase 9 (Homo sapiens, UniProt P50750); experiment: Induction of CDK9 degradation in human 22Rv1 cells; format: cell-based
CWR22R = experiment: Inhibition of cell growth in human 22Rv1 cells; format: functional, cell-based
Cyclin-T1 = Cyclin-T1 (Homo sapiens, UniProt O60563); experiment: Induction of Cyclin T1 degradation in human 22Rv1 cells; format: cell-based
[9] = target: T1, Epidermal growth factor receptor (Homo sapiens, UniProt P00533); experiment: Inhibition of wild-type EGFR in human A549 cells; format: cell-based
T1 sequence (P00533 whole entry): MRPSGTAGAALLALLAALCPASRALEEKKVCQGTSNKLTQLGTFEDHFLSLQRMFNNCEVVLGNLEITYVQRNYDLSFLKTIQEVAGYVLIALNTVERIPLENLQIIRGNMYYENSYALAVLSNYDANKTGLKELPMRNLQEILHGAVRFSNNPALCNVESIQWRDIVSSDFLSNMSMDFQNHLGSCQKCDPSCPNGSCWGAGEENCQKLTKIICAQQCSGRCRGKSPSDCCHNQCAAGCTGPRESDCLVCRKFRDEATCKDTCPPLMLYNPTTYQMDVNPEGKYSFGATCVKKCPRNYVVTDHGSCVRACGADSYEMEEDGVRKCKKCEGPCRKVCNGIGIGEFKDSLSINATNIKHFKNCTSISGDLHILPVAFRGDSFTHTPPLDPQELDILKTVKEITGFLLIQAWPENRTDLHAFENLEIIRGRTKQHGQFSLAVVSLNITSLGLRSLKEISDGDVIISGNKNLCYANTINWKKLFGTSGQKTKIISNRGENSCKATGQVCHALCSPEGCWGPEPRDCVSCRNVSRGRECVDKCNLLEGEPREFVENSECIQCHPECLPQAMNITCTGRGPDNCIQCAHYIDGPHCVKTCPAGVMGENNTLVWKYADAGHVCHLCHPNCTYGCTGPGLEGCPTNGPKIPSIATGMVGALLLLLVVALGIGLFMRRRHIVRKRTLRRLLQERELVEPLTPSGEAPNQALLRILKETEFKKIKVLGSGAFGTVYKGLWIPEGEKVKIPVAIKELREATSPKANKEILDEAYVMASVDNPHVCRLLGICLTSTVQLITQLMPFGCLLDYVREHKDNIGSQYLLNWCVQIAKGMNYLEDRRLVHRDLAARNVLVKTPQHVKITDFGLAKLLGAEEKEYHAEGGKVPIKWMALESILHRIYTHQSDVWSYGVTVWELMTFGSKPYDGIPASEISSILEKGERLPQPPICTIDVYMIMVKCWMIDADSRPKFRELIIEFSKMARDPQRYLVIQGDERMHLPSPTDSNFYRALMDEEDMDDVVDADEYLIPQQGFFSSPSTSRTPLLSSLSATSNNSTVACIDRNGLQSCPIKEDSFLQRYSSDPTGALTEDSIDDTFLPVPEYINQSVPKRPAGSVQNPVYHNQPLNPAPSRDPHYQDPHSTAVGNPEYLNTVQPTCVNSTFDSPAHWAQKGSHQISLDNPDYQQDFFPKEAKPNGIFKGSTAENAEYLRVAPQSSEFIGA

[10] = target: T1, Epidermal growth factor receptor; experiment: Inhibition of wild-type EGFR in human A-431 cells; format: cell-based
[11] = target: von Hippel-Lindau disease tumor suppressor/Epidermal growth factor receptor (Homo sapiens, UniProt P00533+P40337); experiment: PROTAC activity at VHL/EGFR del19 mutant in human HCC827 cells assessed as protein degradation; format: cell-based
von Hippel-Lindau disease tumor suppressor/Epidermal growth factor receptor, sequence (P00533 whole entry, looked up, stated change not applied): as the sequence (P00533 whole entry) above
von Hippel-Lindau disease tumor suppressor/Epidermal growth factor receptor, sequence (P40337 whole entry, looked up, stated change not applied): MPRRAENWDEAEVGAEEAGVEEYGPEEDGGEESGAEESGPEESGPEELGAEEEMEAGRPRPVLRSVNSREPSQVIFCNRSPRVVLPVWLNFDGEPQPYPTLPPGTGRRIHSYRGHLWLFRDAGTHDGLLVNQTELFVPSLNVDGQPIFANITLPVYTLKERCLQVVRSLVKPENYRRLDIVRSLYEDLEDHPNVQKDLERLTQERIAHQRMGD

[12] = tested on: von Hippel-Lindau disease tumor suppressor/Epidermal growth factor receptor (Homo sapiens), P00533+P40337 [UNDEFINED MUTATION]; experiment: PROTAC activity at VHL/EGFR del19 mutant in human HCC827 cells assessed as protein degradation relative to control; format: cell-based
von Hippel-Lindau disease tumor suppressor/Epidermal growth factor receptor (Homo sapiens), P00533+P40337 [UNDEFINED MUTATION], sequence (P00533 whole entry, looked up, stated change not applied): as the sequence (P00533 whole entry) above
von Hippel-Lindau disease tumor suppressor/Epidermal growth factor receptor (Homo sapiens), P00533+P40337 [UNDEFINED MUTATION], sequence (P40337 whole entry, looked up, stated change not applied): as the sequence (P40337 whole entry, looked up, stated change not applied) above

[13] = Inhibition of EGFR L858R/790M mutant in human NCI-H1975 cells; format: cell-based
[14] = Inhibition of EGFR del19 mutant in human HCC827 cells; format: cell-based
[15] = target: T2, Protein fem-1 homolog B/Bromodomain-containing protein 4 (Homo sapiens, UniProt O60885+Q9UK73); experiment: PROTAC activity at FEM1B/BRD4 in HEK293T cells assessed as protein degradation relative to control; format: cell-based
T2 sequence (Q9UK73 whole entry, looked up, other chains not shown): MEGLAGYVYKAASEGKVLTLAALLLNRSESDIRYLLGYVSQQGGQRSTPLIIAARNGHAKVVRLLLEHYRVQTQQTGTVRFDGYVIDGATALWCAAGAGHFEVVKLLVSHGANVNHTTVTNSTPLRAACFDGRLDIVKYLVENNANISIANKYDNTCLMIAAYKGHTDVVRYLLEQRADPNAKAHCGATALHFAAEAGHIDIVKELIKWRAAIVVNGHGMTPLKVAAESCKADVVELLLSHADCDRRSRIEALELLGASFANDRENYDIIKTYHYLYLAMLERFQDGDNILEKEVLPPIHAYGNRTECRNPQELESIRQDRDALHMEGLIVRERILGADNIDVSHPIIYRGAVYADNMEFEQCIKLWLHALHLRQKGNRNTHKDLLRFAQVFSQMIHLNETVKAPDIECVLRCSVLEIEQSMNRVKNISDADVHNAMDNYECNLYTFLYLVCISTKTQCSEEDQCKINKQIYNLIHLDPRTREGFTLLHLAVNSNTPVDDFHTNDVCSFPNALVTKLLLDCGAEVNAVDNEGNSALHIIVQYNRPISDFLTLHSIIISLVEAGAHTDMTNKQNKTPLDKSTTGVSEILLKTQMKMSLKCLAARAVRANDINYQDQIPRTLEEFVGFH

[16] = target: Bromodomain-containing protein 4 (Homo sapiens, UniProt O60885); experiment: Inhibition of BRD4 in HEK293T cells; format: cell-based
[17] = target: T2, Protein fem-1 homolog B/Bromodomain-containing protein 4; experiment: PROTAC activity at FEM1B/BRD4 in HEK293T cells assessed as protein degradation; format: cell-based

SMILES: CN(c1ncccc1CNc1nc(Nc2ccc(N3CCN(CCCCCCC(=O)NCCNc4cccc5c4C(=O)N(C4CCC(=O)NC4=O)C5=O)CC3)cc2)ncc1C(F)(F)F)S(C)(=O)=O (stereo unspecified)
- Emax [1]: 85%
- half-life at 2 µM [2]: > 3.25 h
- IC50 (Focal adhesion kinase 1): 0.0264 µM

SMILES: C=C(F)C(=O)N1CCN(c2nc(OC[C@@H]3CCCN3CCCOCCC(=O)N[C@H](C(=O)N3CC(O)C[C@H]3C(=O)NCc3ccc(-c4scnc4C)cc3)C(C)(C)C)nc3c2CCN(c2cccc4cccc(Cl)c24)C3)C[C@@H]1CC#N (stereo partly specified)
- DC50 [3]: 0.59 µM

SMILES: CC1CCC(C(C)C)C(OCC(=O)NCCS(=O)(=O)N2CCC(C(=O)Nc3ncc(SCc4ncc(C(C)(C)C)o4)s3)CC2)C1 (stereo unspecified)
- DC50 [8]: 0.062 µM
- IC50 (CWR22R): 0.095 µM
- DC50 (Cyclin-T1): 0.589 µM

SMILES: Cc1ncsc1-c1ccc(CNC(=O)C2CC(O)CN2C(=O)C(NC(=O)CCCCCCCCCCn2cc(COc3cc4ncnc(Nc5ccc(F)c(Cl)c5)c4cc3NC(=O)/C=C/CN3CCCCC3)nn2)C(C)(C)C)cc1 (stereo unspecified)
- IC50 [9]: > 20 µM
- IC50 [10]: > 20 µM
- DC50 [11]: 0.00357 µM
- Emax [12]: 91%
- IC50 [13]: > 20 µM
- IC50 [14]: 0.006 µM

The next lines start with the values.

- IC50 [4]: 0.544 µM
- IC50 [5]: 0.09 µM
- GI50 (SW-620): 3.1 µM
- DC50 [6]: 0.023 µM
- IC50 [7]: 0.798 µM
SMILES: Cc1ncsc1-c1ccc(C(C)NC(=O)C2CC(O)CN2C(=O)C(NC(=O)CCCCCCCCCCNC(=O)CCc2cccc(-c3ccc4nc(-c5cccnc5N)n(-c5ccc(C6(N)CCC6)cc5)c4n3)c2)C(C)(C)C)cc1 (stereo unspecified)

- Emax [15]: 94%
- IC50 [16]: 1.4 µM
- DC50 [17]: 0.25 µM
SMILES: Cc1sc2c(c1C)C(c1ccc(Cl)cc1)=N[C@H](CC(=O)NCCCCCNC(=O)CN1CCOc3cc(N(CCC#N)C(=O)CCl)ccc31)c1nnc(C)n1-2
